Laboratory results reported in patent US7803930B2, “Antisense modulation of apolipoprotein B-expression” (Isis Pharmaceuticals, Inc., priority 2002, dated 2010).
In the oligonucleotide strings, read from the 5' end, every base follows the letter of its sugar. An asterisk marks phosphorothioate; unmarked linkages are phosphodiester. Other units and linkages are bracketed, terminal groups are in braces. A string of capitals states the bases alone. e = 2'-O-(2-methoxyethyl) (MOE); [5mC] = 5-methylcytosine; d = 2'-deoxy (DNA)

Key:
[1] = High fat fed mice (Example 51): total, LDL- and HDL-cholesterol levels; type: in vivo, mouse; settings: 50 mg/kg i.p. twice weekly
Method: In a further embodiment of the invention, the inhibition of apolipoprotein B mRNA in mice was compared to liver oligonucleotide concentration, total cholesterol, LDL-cholesterol and HDL-cholesterol. Male C57Bl/6 mice receiving a high fat diet (60% fat) were evaluated over the course of 6 weeks for the effects of treatment with twice weekly intraperitoneal injections of 50 mg/kg ISIS 147764 (SEQ ID NO: 109) or 50 mg/kg of the control oligonucleotide ISIS 141923 (SEQ ID NO: 858). Control animals received saline treatment. Animals were sacrificed after 2 days, 1, 2, 4 and 6 weeks of treatment. Each treatment group at each time point consisted of 8 mice.
Target expression in liver was measured by real-time PCR as described by other examples herein and is expressed as percent inhibition relative to saline treated mice. Total, LDL- and HDL-cholesterol levels were measured by routine clinical analysis using an Olympus Clinical Analyzer (Olympus America Inc., Melville, N.Y.) and are presented in mg/dL. Results from saline-treated animals are shown for comparison. Intact oligonucleotide in liver tissue was measured by capillary gel electrophoresis and is presented as micrograms of oligonucleotide per gram of tissue.
The oligonucleotide treatments described in this example were duplicated to investigate the extent to which effects of ISIS 147764 persist following cessation of treatment. Mice were treated as described, and sacrificed 1, 2, 4, 6 and 8 weeks following the cessation of oligonucleotide treatment.

[2] = test system: apolipoprotein B mRNA; experiment: Lean mice, 6 weeks (Example 66): apolipoprotein B mRNA; type: in vivo, mouse
Method: The accumulation of lipids in liver tissue was also evaluated in lean mice. Male […] mice (Charles River Laboratories (Wilmington, Mass.) at 6 to 7 weeks of age were maintained on a standard rodent diet and were treated twice weekly with intraperitoneal injections of 25 or 50 mg/kg 147764 (SEQ ID NO: 109) or 147483 (SEQ ID NO: 79) for 6 weeks. Saline treated animals served as controls. Each treatment group was comprised of 4 animals. Animals were sacrificed after the 6 week treatment period, at which point liver tissue and serum were collected.
Apolipoprotein B mRNA levels were measured by real-time PCR as described by other examples herein. The data, shown in Table 51, represent the average of 4 animals and are presented as inhibition relative to saline treated controls.

[3] = test system: apolipoprotein B mRNA; experiment: Long-term study in lean Cynomolgous monkeys (Example 64): apolipoprotein B mRNA in liver; type: in vivo, Cynomolgous monkey; settings: for apolipoprotein B expression % change normalized to saline: liver, one month
Method: Male and female Cynomologous monkeys are treated with 2, 4 or 12 mg/kg of ISIS 301012 intravenously or 2 or 20 mg/kg subcutaneously at a frequency of every two days for the first week, and every 4 days thereafter, for 1 and 3 month treatment periods. Saline-treated animals serve as controls. Each treatment group includes 2 to 3 animals of each sex.
At a one month interval and at the 3 month study termination, the animals are sacrificed and evaluated for target expression in liver, lipid levels in serum and indicators of toxicity. Liver samples are procured, RNA is isolated and apolipoprotein B mRNA expression is measured by real-time PCR as described in other examples herein. Serum lipids, including total cholesterol, LDL-cholesterol, HDL-cholesterol and triglycerides, are evaluated by routine clinical analysis using an Olympus Clinical Analyzer (Olympus America Inc., Melville, N.Y.). Ratios of LDL-cholesterol to HDL-cholesterol and total cholesterol to HDL-cholesterol are also calculated. Analyses of serum ALT and AST, inflammatory infiltrates in tissue and basophilic granules in tissue provide an assessment of toxicities related to the treatment. Hepatic steatosis, or accumulation of lipids in the liver, is assessed by routine histological analysis with oil red 0 stain and measurement of liver tissue triglycerides using a Triglyceride GPO Assay (Sigma-Aldrich, St. Louis, Mo.).
The results from the one month interval of the long term treatment are shown in Table 50 and are normalized to saline-treated animals for mRNA and to untreated baseline values for lipid levels. Total cholesterol, LDL-cholesterol, HDL-cholesterol, LDL particle concentration and triglyceride levels in serum were measured by nuclear magnetic resonance spectroscopy by Liposcience (Raleigh, N.C.). Additionally, the concentration of intact oligonucleotide in liver was measured by capillary gel electrophoresis and is presented as micrograms of oligonucleotide per gram of liver tissue. Each result represents the average of data from 4 animals (2 males and 2 females).
In a similar experiment, male and female Cynomolgous monkeys received an intravenous dose of ISIS 301012 at 4 mg/kg, every two days for the first week and every 4 days thereafter. Groups of animals were sacrificed after the first dose and the fourth dose, as well as 11, 15 and 23 days following the fourth and final dose. Liver RNA was isolated and apolipoprotein B mRNA levels were evaluated by real-time PCR as described herein. […] Furthermore, after 4 doses of ISIS 301012 at 4 mg/kg, target mRNA was reduced by approximately 85% and a 50% reduction in target mRNA was sustained for up to 16 days following the cessation of antisense oligonucleotide treatment.

[4] = C57BL/6NTac-TgN(APOB100) transgenic mice (Example 47): liver enzyme, cholesterol, LDL-cholesterol and triglyceride levels; type: in vivo, mouse; settings: C57BL/6NTac-TgN(APOB100) mice, 25 mg/kg
[5] = high fat fed male C57Bl/6 mice, treatment period 1 week
[6] = high fat fed male C57Bl/6 mice, treatment period 2 weeks
[7] = high fat fed male C57Bl/6 mice, treatment period 4 weeks
[8] = high fat fed male C57Bl/6 mice, treatment period 6 weeks
[9] = high fat fed male C57Bl/6 mice, treatment period 2 days
[10] = high fat fed mice, 1 week after cessation of dosing
[11] = high fat fed mice, 2 weeks after cessation of dosing
[12] = high fat fed mice, 4 weeks after cessation of dosing
[13] = high fat fed mice, 6 weeks after cessation of dosing
[14] = high fat fed mice, 8 weeks after cessation of dosing

147764 (eG*eT*e[5mC]*e[5mC]*e[5mC]*dT*dG*dA*dA*dG*dA*dT*dG*dT*d[5mC]*eA*eA*eT*eG*e[5mC]) [compound 147764]
HDL-cholesterol [1, 5]: 107 mg/dL
LDL-cholesterol [1, 5]: 19 mg/dL
Total cholesterol [1, 5]: 128 mg/dL
HDL-cholesterol [1, 6]: 105 mg/dL
LDL-cholesterol [1, 6]: 14 mg/dL
Total cholesterol [1, 6]: 121 mg/dL
HDL-cholesterol [1, 7]: 66 mg/dL
LDL-cholesterol [1, 7]: 7 mg/dL
Total cholesterol [1, 7]: 75 mg/dL
HDL-cholesterol [1, 8]: 64 mg/dL
LDL-cholesterol [1, 8]: 7 mg/dL
Total cholesterol [1, 8]: 73 mg/dL
HDL-cholesterol [1, 9]: 76 mg/dL
LDL-cholesterol [1, 9]: 7 mg/dL
Total cholesterol [1, 9]: 101 mg/dL
HDL-cholesterol [1, 10]: 51 mg/dL
LDL-cholesterol [1, 10]: 14 mg/dL
Total cholesterol [1, 10]: 69 mg/dL
HDL-cholesterol [1, 11]: 49 mg/dL
LDL-cholesterol [1, 11]: 14 mg/dL
Total cholesterol [1, 11]: 67 mg/dL
HDL-cholesterol [1, 12]: 79 mg/dL
LDL-cholesterol [1, 12]: 18 mg/dL
Total cholesterol [1, 12]: 111 mg/dL
HDL-cholesterol [1, 13]: 100 mg/dL
LDL-cholesterol [1, 13]: 24 mg/dL
Total cholesterol [1, 13]: 138 mg/dL
HDL-cholesterol [1, 14]: 94 mg/dL
LDL-cholesterol [1, 14]: 21 mg/dL
Total cholesterol [1, 14]: 135 mg/dL

GTCCCTGAAGATGTCAATGC (2'-MOE gapmer, further chemistry not given here) [ISIS 147764]
% Inhibition apolipoprotein B mRNA ([2]; 25 mg/kg i.p. twice weekly): 48%
% Inhibition apolipoprotein B mRNA ([2]; 50 mg/kg i.p. twice weekly): 77%
inhibition of apolipoprotein B mRNA expression ([2]; 25 or 50 mg/kg i.p. twice weekly): in a dose-dependent manner

ISIS 301012: SEQ ID NO: 247, antisense oligonucleotide targeted to human apolipoprotein B (antisense GCCTCAGTCTGCTTCGCACC; chemistry not given here)
reduction in target mRNA in liver ([3]; Cynomolgous monkeys, after 4 doses at 4 mg/kg i.v.): approximately 85%
reduction in apolipoprotein B mRNA expression in liver ([3]; Cynomolgous monkeys, single intravenous dose of 4 mg/kg): 40%
reduction in target mRNA in liver sustained after cessation ([3]; Cynomolgous monkeys, up to 16 days following cessation of treatment (4 doses, 4 mg/kg)): 50%
apolipoprotein B expression ([3]; lean Cynomolgous monkeys, one month interval): inhibits apolipoprotein B expression in a dose-dependent manner
apolipoprotein B expression % change normalized to saline ([3]; lean Cynomolgous monkeys, intravenous 2 mg/kg): −45%
apolipoprotein B expression % change normalized to saline ([3]; lean Cynomolgous monkeys, intravenous 4 mg/kg): −76%
apolipoprotein B expression % change normalized to saline ([3]; lean Cynomolgous monkeys, intravenous 12 mg/kg): −96%
apolipoprotein B expression % change normalized to saline ([3]; lean Cynomolgous monkeys, subcutaneous 20 mg/kg): −94%
LDL-cholesterol levels ([4]; 2 weeks of treatment): 22 mg/dL
LDL-cholesterol levels ([4]; 4 weeks of treatment): 17 mg/dL
